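Compound exposure: 48 hours, 5 concentrations, 96-well plates. TGI: concentration producing complete growth inhibition.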
How the values were obtained:
Assay in all cases: inhibition of tumour cell growth, NCI panel, 48 h
MALME-3M melanoma = test system: MALME-3M melanoma
KM12 colon = test system: KM12 colon
OVCAR-5 ovarian = test system: OVCAR-5 ovarian
HS 578T breast = test system: HS 578T breast
T-47D breast = test system: T-47D breast
HCT-15 colon = test system: HCT-15 colon
UO-31 renal = test system: UO-31 renal
MCF7 breast = test system: MCF7 breast
SNB-75 CNS = test system: SNB-75 CNS
SF-539 CNS = test system: SF-539 CNS

Compound | TGI (MALME-3M melanoma) | TGI (KM12 colon) | TGI (OVCAR-5 ovarian) | TGI (HS 578T breast) | TGI (T-47D breast) | TGI (HCT-15 colon) | TGI (UO-31 renal) | TGI (MCF7 breast) | TGI (SNB-75 CNS) | TGI (SF-539 CNS)
S=C1c2ccccc2NC(=NC2CCCC2)C2CSCN12 (configuration not stated) | > 100 µM | > 100 µM | > 100 µM | > 100 µM | > 100 µM | > 100 µM | > 100 µM | > 100 µM | – | –
COC1=CC(=O)c2ccccc2C1(CCC=C(C)C)C1=NC(C)(C)CO1 (configuration not stated) | > 100 µM | > 100 µM | – | – | – | > 100 µM | > 100 µM | – | > 100 µM | > 100 µM
Cc1c(C)c(C)c(-n2[nH]c(=O)n(C)c2=O)c(C)c1C | – | > 100 µM | > 100 µM | > 100 µM | > 100 µM | > 100 µM | > 100 µM | > 100 µM | > 100 µM | > 100 µM
O=[N+]([O-])c1cccc(-c2csc(N=Nc3c(O)[nH]c4ccccc34)n2)c1 | – | > 100 µM | > 100 µM | 45.7 µM | 82.4 µM | 54.4 µM | > 100 µM | > 100 µM | 56.1 µM | 68 µM
CCC(CCCN)Nc1cc(OC)cc2cccnc12 (configuration not stated) | > 100 µM | > 100 µM | > 100 µM | > 100 µM | – | > 100 µM | > 100 µM | > 100 µM | > 100 µM | > 100 µM
COc1ccc(N[C@H](CS(=O)c2ccc(C)cc2)c2ccc(F)cc2)cc1 (some centres not stated) | > 100 µM | > 100 µM | > 100 µM | – | > 100 µM | > 100 µM | > 100 µM | > 100 µM | 81.7 µM | 56.7 µM
Brc1ccc(N=NN2CCCCC2)cc1 | – | > 100 µM | > 100 µM | > 100 µM | > 100 µM | > 100 µM | > 100 µM | > 100 µM | > 100 µM | > 100 µM
COc1ccc2c3c1OC1CC(O)C=CC31CCN(C)C2 (configuration not stated) | > 150 µM | > 150 µM | > 150 µM | – | – | > 150 µM | > 150 µM | > 48.8 µM | > 150 µM | > 33.8 µM
CCNC(=O)Nc1cccc(C)n1 | > 100 µM | > 100 µM | > 100 µM | > 100 µM | > 100 µM | – | > 100 µM | > 100 µM | > 100 µM | > 100 µM
CCOC(=O)/C(O)=C1\C(=O)N(C)C(=O)C1c1ccc(OC)c(OC)c1 (configuration not stated) | > 100 µM | > 100 µM | > 100 µM | – | – | > 100 µM | > 100 µM | > 100 µM | > 100 µM | > 100 µM
COc1ccc2[nH]c3c(c2c1)CCN(C)CC3 | > 100 µM | > 100 µM | > 100 µM | – | – | > 100 µM | – | – | > 100 µM | > 100 µM
Cn1c(=O)c2c(nc(NCCCCl)n2CC(=O)O)n(C)c1=O | – | > 100 µM | > 100 µM | > 100 µM | > 100 µM | > 100 µM | > 100 µM | > 100 µM | > 100 µM | –
COc1cc(-c2nc3cc(F)ccc3s2)ccc1O | > 100 µM | > 100 µM | > 100 µM | – | 15.3 µM | > 100 µM | > 100 µM | > 100 µM | – | > 100 µM
COc1ccc2c(c1)O[C@@H]1C(O)Oc3cc(OC)c(OC)cc3[C@]1(O)C2=O (some centres not stated) | – | > 100 µM | > 100 µM | > 100 µM | > 100 µM | > 100 µM | – | > 100 µM | > 100 µM | > 100 µM
CN(C)C(=S)N/N=C\C=N/NC(=S)N(C)C | – | > 100 µM | > 100 µM | > 23.4 µM | > 100 µM | > 100 µM | > 100 µM | > 100 µM | > 100 µM | > 100 µM
CC(C)(C)OC(=O)n1cc(C2CNC(=O)C23CCC(=O)N3Cc2ccccc2)c2ccccc21 (configuration not stated) | 42.8 µM | 78.3 µM | 40.8 µM | 86.5 µM | > 100 µM | – | 49 µM | 80.3 µM | 38.2 µM | 38.4 µM
CCC(C)[C@H](NC(=O)N[C@H](C)c1ccccc1)C(=O)OC (some centres not stated) | – | > 100 µM | > 100 µM | – | – | > 100 µM | > 100 µM | > 100 µM | > 100 µM | > 100 µM
CSc1nc(NC2CCCC2)c2cc[nH]c2n1 | > 100 µM | > 100 µM | – | > 100 µM | > 100 µM | > 100 µM | > 100 µM | > 100 µM | – | > 100 µM
COc1ccc(N2C=Nn3c(nc4sc(C)c(C)c4c3=O)C2)cc1 | > 100 µM | > 100 µM | > 100 µM | > 100 µM | > 100 µM | > 100 µM | > 100 µM | > 100 µM | > 100 µM | –
CN(C)c1ccc(/C=N/Nc2nc3ccccc3c(=O)n2-c2ccccc2)cc1 | > 100 µM | > 100 µM | > 100 µM | – | > 100 µM | > 100 µM | > 100 µM | > 100 µM | 57.5 µM | 72 µM
CCN(CC)Cc1nc2sc3c(c2c(=O)n1-c1ccccc1)CCCC3 | 45.5 µM | > 100 µM | 63.1 µM | 93.6 µM | 44.7 µM | 51.7 µM | 23.3 µM | 36 µM | 47.4 µM | –
Cc1c(-c2c(C)c3ccccc3n2S(=O)(=O)c2ccccc2)n(S(=O)(=O)c2ccccc2)c2ccccc12 | 13.1 µM | > 100 µM | > 100 µM | > 100 µM | – | > 100 µM | > 100 µM | > 100 µM | > 31.6 µM | > 100 µM
CCCCCc1cc(OC(=O)c2c(O)cc(OC)cc2CCCCC)cc(O)c1C(=O)O | 26.1 µM | 34 µM | 34.1 µM | – | – | 30.7 µM | 26.6 µM | – | 32.5 µM | 30.5 µM
O=C1C(Br)=CC2([N+](=O)[O-])CCNc3c(O)c4c5c(c3C2=C1Br)=NCCC=5C=N4 (configuration not stated) | – | 14.8 µM | 2.39 µM | – | – | 2.16 µM | 22.9 µM | 1.72 µM | 20.5 µM | 4.55 µM

— PubChem BioAssay (NCI)
